Data published in article PMC4425855, “Novel pantothenate derivatives for anti-malarial chemotherapy” (Malaria Journal, 2015).
pIC50: −log10 of the molar value. Where two headings read alike, the source gives them in different places.

Columns and labels:
[1] = test system: asexual NF54 strain P. falciparum; experiment: Plasmodium falciparum asexual blood stages proliferation assay with SYBR Green read-out; type: cell-based; details: for pIC50 / anti-malarial activity (in words): compound alone, 10% human serum; for pIC50: NF54 asexual blood stages, 72 hours, relative to DHA control, read-out: Anti-malarial activity IC50; for anti-malarial activity (in words): highest concentration tested 100 μM; for change of anti-malarial potency upon vanin inhibition: combined with 5 μM of vanin inhibitor CXP14.1-060
Procedure: The asexual stages of the NF54 strain P. falciparum were cultured as previously described, utilizing a shaker system with automated media change twice a day, parasites were kept in continuous culture within adapted Erlenmeyer flasks. Erythrocytes were refreshed every two or three days to adjust haematocrit to 5% and parasitaemia to 0.5%. Human erythrocytes (blood type A) were obtained from healthy blood donors, with no history of malaria. Culture media consisted of RPMI 1640 with HEPES [5.94 g/l, hypoxanthine [0.05 g/l], 10% (v/v) pooled human serum (blood type A) obtained similarly to erythrocytes, and 0,2% (w/v) sodium bicarbonate. Temperature was set to 37°C and a low oxygen gas mixture was constantly flushed over the culture maintaining a stable atmosphere of 3% O2, 4% CO2, and 93% N2.
A non-synchronous asexual NF54 strain P. falciparum culture was adjusted to a parasitaemia of 0.5-1% and a haematocrit of 1-5%. The compound dilution curves were prepared in dimethylsulphoxide (DMSO) from 100 mM to 10 μM at half/log step dilutions. The established anti-malarial dihydroartemisinin (DHA) was used as a positive control and diluted in DMSO from 1 mM to 100 nM at half/log step dilutions. The DMSO dilutions were 500-fold diluted in growth medium to yield a final DMSO concentration of 0.2% (v/v), and final compound concentrations from 200 μM to 20 nM (2 μM to 200 pM for DHA). Higher concentrations for the experimental compounds would not have been possible to achieve due to limitations in final DMSO concentration (0.1% v/v). Fifty μl of each compound dilution was combined with 50 μl of parasite culture in a black, clear-bottomed or entirely black 96-well plate. The outermost wells were filled with sterile water to prevent evaporation. DHA at a concentration of 1 μM and 0.1% DMSO (negative control) were used to determine the assay window. The 96-well plates were incubated for 72 hours in a candle jar at 37°C. Read-out was done using the DNA-marker SYBR Green as described previously. All assays were conducted at least in triplicate.
When combining two compounds in the same well the conditions were otherwise similar to the single compound assays, however the final DMSO concentration was 0.2%, which was also adjusted for the positive and negative controls and was not found to cause differences in results obtained with single compounds in assay containing 0.1% DMSO. The pantothenamide phenethyl-Pan was combined with a 10^−7 to 10^−5 M concentration curve of CXP14.1-060; the other pantothenamides were combined only with a 5 μM concentration of the same vanin inhibitor. The pantothenone vanin inhibitor RR8 was additionally combined with 20 μM, 6.3 μM, 2.0 μM, and 0.6 μM of pantothenate to explore potential competition for the same molecular target in P. falciparum. All assays were conducted at least in triplicate.
Statistical analyses were performed using GraphPad Prism 5. This includes producing inhibition curves, normalizing them to percentage of inhibition, calculation of IC50 values, correlation coefficients (Spearman non-parametric correlation), and Schild analyses. The IC50 is the concentration of the compound in question at which the compound reaches 50% inhibition relative to the DHA control curve, and is calculated using the interpolate function in GraphPad Prism 5.

[2] = biological target: T1, vanin enzymatic activity in human serum (Homo sapiens, UniProt O95497); experiment: Vanin/pantetheinase activity assay with AMC substrate and fluorescence readout; type: biochemical
T1 sequence (O95497 22-491): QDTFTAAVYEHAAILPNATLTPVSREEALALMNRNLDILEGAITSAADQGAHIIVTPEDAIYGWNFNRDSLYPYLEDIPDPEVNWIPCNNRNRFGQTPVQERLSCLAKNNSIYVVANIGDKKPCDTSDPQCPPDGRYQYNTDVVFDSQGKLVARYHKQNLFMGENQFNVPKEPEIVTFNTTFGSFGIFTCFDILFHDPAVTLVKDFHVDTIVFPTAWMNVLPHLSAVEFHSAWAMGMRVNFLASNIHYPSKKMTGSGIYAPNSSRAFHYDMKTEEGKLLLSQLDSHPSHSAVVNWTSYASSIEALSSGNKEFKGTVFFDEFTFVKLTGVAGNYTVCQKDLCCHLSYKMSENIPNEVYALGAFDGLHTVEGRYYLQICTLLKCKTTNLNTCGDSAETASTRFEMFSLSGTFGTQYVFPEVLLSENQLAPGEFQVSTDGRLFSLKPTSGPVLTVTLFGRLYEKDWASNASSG

P. falciparum = test system: P. falciparum; set-up: method as in PMID 23405100; details: 'aged' medium; cited from earlier work
[3] = Plasmodium falciparum, NF54, 72 h

Row | SMILES | pIC50 [1, 3] | anti-malarial activity (in words) [1] | other results
1 | CC(C)(CO)[C@@H](O)C(=O)N/C=C/C(=O)O [CJ-15,801] | < 4.00 | poor inhibitor of P. falciparum growth | –
2 | CC(C)(CO)[C@@H](O)C(=O)NCCC(O)Cc1ccccc1 (stereo partly shown) [CXP14.1-034] | 4.62 | – | –
3 | CC(C)(C)c1ccc(CC(=O)CCNC(=O)[C@H](O)C(C)(C)CO)cc1 [CXP14.1-060] | < 4.00 | no anti-malarial activity | potency against human vanins (in words) [2]: nanomolar potency
4 | C[C@H]1[C@@H](O)O[C@@H]2O[C@@]3(C)CC[C@H]4[C@H](C)CC[C@@H]1[C@@]24OO3 [DHA, dihydroartemisinin] | – | – | change of anti-malarial potency upon vanin inhibition [1]: did not change; Anti-malarial IC50 (in words) ([1]; reference compound): low nanomolar range
5 | CCCCCNC(=O)CCNC(=O)[C@H](O)C(C)(C)CO [N5-Pan] | ≤ 4.30 | – | change of anti-malarial potency upon vanin inhibition [1]: increased; pIC50 [1]: 4.35
6 | CCCCCCCNC(=O)CCNC(=O)[C@H](O)C(C)(C)CO [N7-Pan] | ≤ 4.30 | – | change of anti-malarial potency upon vanin inhibition [1]: increased; pIC50 [1]: 4.10
7 | CCCCCCCCCNC(=O)CCNC(=O)[C@H](O)C(C)(C)CO [N9-Pan] | ~4.82 | – | change of anti-malarial potency upon vanin inhibition [1]: not increased; pIC50 [1]: 4.84
8 | CC(C)(CO)[C@@H](O)C(=O)NCCCO [Pantothenol] | < 4.00 | no anti-malarial activity | –
9 | CC(C)(CO)[C@@H](O)C(=O)NCCC(=O)NCCc1ccccc1 [Phenethyl-Pan] | ≤ 4.30 | – | pIC50 [1]: 4.01; efficacy of parasite growth inhibition ([1]; in the presence of 10 μM of vanin inhibitor CXP14.1-060, comparable to DHA): full inhibition of parasite growth; pIC50 (P. falciparum): 7.70
10 | C=CCCC(=O)CCNC(=O)[C@H](O)C(C)(C)CO [RR2] | 5.59 | – | –
11 | CC(C)(CO)[C@@H](O)C(=O)NCCC(=O)CCc1ccccc1 [RR7] | 5.11 | – | –
12 | CC(C)(CO)[C@@H](O)C(=O)NCCC(=O)CCCc1ccccc1 [RR8] | 5.66 | – | slope of the line in the Schild Plot ([1]; RR8 dilution curve combined with 20 μM, 6.3 μM, 2.0 μM and 0.6 μM of pantothenate): 1.087 ± 0.089; shift of IC50 on addition of pantothenate ([1]; addition of increasing concentrations of pantothenate): increase in the IC50
13 | CC(C)(CO)[C@@H](O)C(=O)NCCC(=O)c1ccccc1 [SN 12,601] | 5.21 | moderate activity | –
14 | CC(C)(CO)[C@@H](O)C(=O)NCCS(=O)(=O)Nc1ccccc1 [SN 14,621] | 4.47 | moderate activity | –
15 | CC(C)(CO)[C@@H](O)C(=O)NCCS(=O)(=O)Nc1ccc(Cl)cc1 [SN 14,622] | 5.13 | moderate activity | –
